# Data from ChEMBL document CHEMBL1156029, “The discovery of thienopyridine analogues as potent IkappaB kinase beta inhibitors. Part II” (Bioorg Med Chem Lett, 2009).
# pIC50: −log10 of the molar value.
# Biological target: T1, Inhibitor of nuclear factor kappa-B kinase subunit beta (Homo sapiens, UniProt O14920)
# T1 sequence (O14920 whole entry): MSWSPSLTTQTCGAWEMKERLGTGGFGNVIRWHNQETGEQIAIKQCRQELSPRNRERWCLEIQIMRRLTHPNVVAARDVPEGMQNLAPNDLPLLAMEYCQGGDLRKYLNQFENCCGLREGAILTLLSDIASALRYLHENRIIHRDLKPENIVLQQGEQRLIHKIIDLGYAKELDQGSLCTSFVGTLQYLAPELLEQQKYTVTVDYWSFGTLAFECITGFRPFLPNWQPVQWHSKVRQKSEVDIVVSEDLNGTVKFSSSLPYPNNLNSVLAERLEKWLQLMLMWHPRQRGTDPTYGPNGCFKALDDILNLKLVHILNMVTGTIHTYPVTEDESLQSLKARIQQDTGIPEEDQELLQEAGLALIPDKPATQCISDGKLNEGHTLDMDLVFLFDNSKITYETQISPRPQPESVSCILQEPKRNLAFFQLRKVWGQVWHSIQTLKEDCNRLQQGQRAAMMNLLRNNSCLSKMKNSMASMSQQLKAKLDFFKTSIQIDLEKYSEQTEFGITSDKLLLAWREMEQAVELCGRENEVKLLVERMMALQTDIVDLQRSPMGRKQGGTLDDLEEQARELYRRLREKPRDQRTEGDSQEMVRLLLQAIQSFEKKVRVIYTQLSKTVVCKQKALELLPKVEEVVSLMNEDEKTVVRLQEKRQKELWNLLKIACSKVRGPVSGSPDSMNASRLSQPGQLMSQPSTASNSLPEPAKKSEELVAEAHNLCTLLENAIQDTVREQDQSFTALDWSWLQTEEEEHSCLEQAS
# Test: Inhibition of Flag epitope-tagged IKK-beta preincubated for 5 mins by scintillation proximity assay
row,SMILES,pIC50
1,Cc1cc(-c2ccco2)c2c(N)c(C(N)=O)sc2n1,5.96
2,COc1ccnc2sc(C(N)=O)c(N)c12,5.33
3,Cc1ccc(-c2cc(C)nc3sc(C(N)=O)c(N)c23)cc1,5.07
4,Cc1cc(CC(C)C)c2c(N)c(C(N)=O)sc2n1,5.60
5,Cc1cc(-c2ccc(O)cc2)c2c(N)c(C(N)=O)sc2n1,< 4.70
6,Cc1cc(-c2ccccc2)c2c(N)c(C(N)=O)sc2n1,5.13
7,Cc1cc(OCCN)nc2sc(C(N)=O)c(N)c12,5.54
8,Cc1cc(-c2ccc(S(C)(=O)=O)cc2)c2c(N)c(C(N)=O)sc2n1,5.89
9,Cc1cc(N2CCCC(O)C2)nc2sc(C(N)=O)c(N)c12 (stereo unspecified),5.62
10,Cc1cc(C)c2c(N)c(C(N)=O)sc2n1,5.57
11,CCCOc1ccnc2sc(C(N)=O)c(N)c12,5.66
12,Cc1cc(OCCO)nc2sc(C(N)=O)c(N)c12,5.18
13,Cc1cc(NCCO)nc2sc(C(N)=O)c(N)c12,5.24
14,Cc1cc(-c2cc3ccccc3o2)c2c(N)c(C(N)=O)sc2n1,4.77
15,Cc1cc(OCCCO)nc2sc(C(N)=O)c(N)c12,5.29
16,Cc1cc(-c2ccccn2)c2c(N)c(C(N)=O)sc2n1,5.22
17,Cc1cc(-c2cccs2)c2c(N)c(C(N)=O)sc2n1,5.70
18,COCCOc1ccnc2sc(C(N)=O)c(N)c12,4.97
19,Cc1ccc2c(N)c(C(N)=O)sc2n1,4.90
20,Cc1cc(OCCCN)nc2sc(C(N)=O)c(N)c12,< 4.30
21,CCOc1ccnc2sc(C(N)=O)c(N)c12,5.70
22,Cc1cc(CO)c2c(N)c(C(N)=O)sc2n1,4.87
23,Cc1cc(-c2ccc(Cl)cc2)c2c(N)c(C(N)=O)sc2n1,4.85

# Results, then the molecule that gave them:
row,pIC50,SMILES
1,6.17,Cc1cc(N2CCNCC2)nc2sc(C(N)=O)c(N)c12
2,5.70,CCCc1cc(N2CCNC(=O)C2)nc2sc(C(N)=O)c(N)c12
3,6.28,CCCc1cc(N2CCN(C)CC2)nc2sc(C(N)=O)c(N)c12
4,6.85,CCCc1cc(N2CCCNC(=O)C2)nc2sc(C(N)=O)c(N)c12
5,6.23,CCCc1cc(N2CC[C@H](N)C2)nc2sc(C(N)=O)c(N)c12
6,6.62,"CCCc1cc(N2CCC(O)C(C)(C)C2)nc2sc(C(N)=O)c(N)c12 (single isomer, unassigned; enantiomer 2)"
7,6.92,CCCc1cc(N2CCC(NC)CC2)nc2sc(C(N)=O)c(N)c12
8,6.30,CCCc1cc(N2CC[C@@H](N)C2)nc2sc(C(N)=O)c(N)c12
9,5.60,Cc1cc(N2CCOCC2)nc2sc(C(N)=O)c(N)c12
10,7.38,"CCCc1cc(N2CCC(O)C(C)(C)C2)nc2sc(C(N)=O)c(N)c12 (single isomer, unassigned; enantiomer 1)"
11,6.17,CCCc1cc(N2CCC(OC)CC2)nc2sc(C(N)=O)c(N)c12
12,5.62,Cc1cc(N2CCCCC2)nc2sc(C(N)=O)c(N)c12
13,6.82,CCCc1cc(N2CCN(C(N)=O)CC2)nc2sc(C(N)=O)c(N)c12
14,6.20,CCCc1cc(N2CCCCC(N)C2)nc2sc(C(N)=O)c(N)c12 (stereo unspecified)
15,5.89,CCCc1cc(N2CCC(C(N)=O)CC2)nc2sc(C(N)=O)c(N)c12
16,7.14,CCCc1cc(N2CCCNCC2)nc2sc(C(N)=O)c(N)c12
17,5.71,CCCc1cc(N2CC[C@@H](O)C2)nc2sc(C(N)=O)c(N)c12
18,5.11,CCCc1cc(N2CCC(C(=O)OC)CC2)nc2sc(C(N)=O)c(N)c12
19,7.01,CCCc1cc(N2CCC(NS(C)(=O)=O)CC2)nc2sc(C(N)=O)c(N)c12
20,5.89,CCCc1cc(C)nc2sc(C(N)=O)c(N)c12
21,6.12,Cc1cc(N2CCC(O)CC2)nc2sc(C(N)=O)c(N)c12
22,5.84,CCCc1cc(N2CC[C@H](O)C2)nc2sc(C(N)=O)c(N)c12
23,6.17,CCCc1cc(N2CCC(N(C)C)CC2)nc2sc(C(N)=O)c(N)c12
